Measurements reported in US20220088016A1, “CANCER TREATMENT USING MULTI-TARGETED KINASE INHIBITOR IN COMBINATION OF PROTEIN KINASE BIOMARKERS” (ZHEJIANG CROWNMAB BIOTECH CO. LTD., priority 2019, published 2022).

Key:
Experiment in all cases: Kinase profiling
Format in all cases: binding
Details in all cases: read-out: % Ctrl @ 1000 nM
[1] = target: T1, NEK10 (Homo sapiens, UniProt Q6ZWH5)
T1 construct: T7 phage fusion (said for most assays); made in house

[2] = target: BMX (Homo sapiens, UniProt P51813)
BMX, sequence (P51813 whole entry): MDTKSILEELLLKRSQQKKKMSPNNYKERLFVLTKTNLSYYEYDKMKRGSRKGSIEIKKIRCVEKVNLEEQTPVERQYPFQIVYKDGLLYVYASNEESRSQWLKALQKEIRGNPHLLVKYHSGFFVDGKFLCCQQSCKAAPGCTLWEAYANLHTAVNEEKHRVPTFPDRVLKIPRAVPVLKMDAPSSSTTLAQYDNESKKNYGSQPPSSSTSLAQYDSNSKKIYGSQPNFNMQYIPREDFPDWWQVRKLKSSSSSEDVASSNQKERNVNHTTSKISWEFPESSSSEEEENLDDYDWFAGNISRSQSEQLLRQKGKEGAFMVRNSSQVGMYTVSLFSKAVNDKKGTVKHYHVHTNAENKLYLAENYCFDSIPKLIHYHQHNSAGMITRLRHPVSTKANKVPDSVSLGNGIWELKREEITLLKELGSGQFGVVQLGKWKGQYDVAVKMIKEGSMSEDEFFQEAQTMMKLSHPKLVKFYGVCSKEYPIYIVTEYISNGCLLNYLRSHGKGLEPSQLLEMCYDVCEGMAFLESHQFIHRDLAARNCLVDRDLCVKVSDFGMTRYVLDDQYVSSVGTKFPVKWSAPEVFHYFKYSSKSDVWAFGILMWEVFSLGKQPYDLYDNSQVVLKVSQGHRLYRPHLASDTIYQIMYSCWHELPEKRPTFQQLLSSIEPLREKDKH

[3] = target: HIPK2 (Homo sapiens, UniProt Q9H2X6)
[4] = target: FGFR3 (G697C) (Homo sapiens, UniProt P22607, G697C)
FGFR3 (G697C), sequence (P22607 23-806 G697C): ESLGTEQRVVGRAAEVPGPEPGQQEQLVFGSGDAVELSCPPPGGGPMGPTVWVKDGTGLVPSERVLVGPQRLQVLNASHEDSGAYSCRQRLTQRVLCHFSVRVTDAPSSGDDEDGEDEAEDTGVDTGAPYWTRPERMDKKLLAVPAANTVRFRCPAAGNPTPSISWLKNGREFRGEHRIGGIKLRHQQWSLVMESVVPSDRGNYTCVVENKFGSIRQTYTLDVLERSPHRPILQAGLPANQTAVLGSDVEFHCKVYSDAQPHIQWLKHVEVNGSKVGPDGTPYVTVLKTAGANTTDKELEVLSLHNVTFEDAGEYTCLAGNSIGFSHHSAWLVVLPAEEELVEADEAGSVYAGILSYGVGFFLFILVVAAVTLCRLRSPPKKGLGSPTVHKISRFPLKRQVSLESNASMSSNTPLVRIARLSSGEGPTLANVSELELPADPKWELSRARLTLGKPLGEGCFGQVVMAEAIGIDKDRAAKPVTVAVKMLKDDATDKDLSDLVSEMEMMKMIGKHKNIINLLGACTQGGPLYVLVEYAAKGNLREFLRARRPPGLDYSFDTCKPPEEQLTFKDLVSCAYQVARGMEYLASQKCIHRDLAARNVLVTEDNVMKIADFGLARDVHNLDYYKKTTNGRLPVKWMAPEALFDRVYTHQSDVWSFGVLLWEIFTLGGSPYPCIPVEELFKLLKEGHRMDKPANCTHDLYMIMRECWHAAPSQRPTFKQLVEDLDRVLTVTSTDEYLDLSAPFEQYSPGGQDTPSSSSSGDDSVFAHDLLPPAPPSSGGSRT

[5] = target: T2, MLK1 (Homo sapiens, UniProt P80192)
T2 construct: T7 phage fusion (stated for most kinases of the panel only); made in house; host or cells: T7 phage in E. coli (BL21-derived) or HEK-293 cells

[6] = target: CSK (Homo sapiens, UniProt P41240)
[7] = target: TNNI3K (Homo sapiens, UniProt Q59H18)
[8] = target: T3, MKK7 (Homo sapiens, UniProt O14733)
T3 construct: T7 phage fusion (stated for most kinases of the panel only); made in house; host or cells: T7 phage in E. coli (BL21-derived) or HEK-293 cells

[9] = target: ACVR2B (Homo sapiens, UniProt Q13705)
ACVR2B, sequence (Q13705 19-512): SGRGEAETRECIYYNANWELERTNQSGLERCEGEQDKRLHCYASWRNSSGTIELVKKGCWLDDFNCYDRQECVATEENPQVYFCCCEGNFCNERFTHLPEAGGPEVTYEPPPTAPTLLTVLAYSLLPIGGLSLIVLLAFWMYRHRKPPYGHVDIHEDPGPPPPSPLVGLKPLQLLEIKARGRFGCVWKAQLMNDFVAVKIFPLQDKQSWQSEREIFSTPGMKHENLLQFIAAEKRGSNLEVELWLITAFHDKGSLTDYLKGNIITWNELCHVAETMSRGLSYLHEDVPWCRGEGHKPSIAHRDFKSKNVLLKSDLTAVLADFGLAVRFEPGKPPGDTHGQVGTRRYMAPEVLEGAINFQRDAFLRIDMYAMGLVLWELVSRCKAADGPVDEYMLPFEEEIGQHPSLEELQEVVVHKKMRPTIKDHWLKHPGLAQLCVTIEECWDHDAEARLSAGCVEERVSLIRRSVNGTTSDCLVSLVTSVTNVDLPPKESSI

[10] = target: T4, NEK9 (Homo sapiens, UniProt Q8TD19)
T4 construct: T7 phage fusion (said for most assays); made in house

[11] = target: ERK8 (Homo sapiens, UniProt Q8TD08)
[12] = target: PIK3CA (H1047L) (Homo sapiens, UniProt P42336, H1047L)
[13] = target: BUB1 (Homo sapiens, UniProt O43683)
[14] = target: CDK3 (Homo sapiens, UniProt Q00526)
[15] = target: GSK3A (Homo sapiens, UniProt P49840)
[16] = target: GAK (Homo sapiens, UniProt O14976)
[17] = target: DAPK2 (Homo sapiens, UniProt Q9UIK4)
[18] = target: DDR1 (Homo sapiens, UniProt Q08345)
[19] = target: T5, MEK2 (Homo sapiens, UniProt P36507)
T5 construct: T7 phage fusion (stated for most kinases of the panel only); made in house; host or cells: T7 phage in E. coli (BL21-derived) or HEK-293 cells

[20] = target: PIK3C2B (Homo sapiens, UniProt O00750)
[21] = target: PIK3CA (C420R) (Homo sapiens, UniProt P42336, C420R)
PIK3CA (C420R), sequence (P42336 whole entry C420R): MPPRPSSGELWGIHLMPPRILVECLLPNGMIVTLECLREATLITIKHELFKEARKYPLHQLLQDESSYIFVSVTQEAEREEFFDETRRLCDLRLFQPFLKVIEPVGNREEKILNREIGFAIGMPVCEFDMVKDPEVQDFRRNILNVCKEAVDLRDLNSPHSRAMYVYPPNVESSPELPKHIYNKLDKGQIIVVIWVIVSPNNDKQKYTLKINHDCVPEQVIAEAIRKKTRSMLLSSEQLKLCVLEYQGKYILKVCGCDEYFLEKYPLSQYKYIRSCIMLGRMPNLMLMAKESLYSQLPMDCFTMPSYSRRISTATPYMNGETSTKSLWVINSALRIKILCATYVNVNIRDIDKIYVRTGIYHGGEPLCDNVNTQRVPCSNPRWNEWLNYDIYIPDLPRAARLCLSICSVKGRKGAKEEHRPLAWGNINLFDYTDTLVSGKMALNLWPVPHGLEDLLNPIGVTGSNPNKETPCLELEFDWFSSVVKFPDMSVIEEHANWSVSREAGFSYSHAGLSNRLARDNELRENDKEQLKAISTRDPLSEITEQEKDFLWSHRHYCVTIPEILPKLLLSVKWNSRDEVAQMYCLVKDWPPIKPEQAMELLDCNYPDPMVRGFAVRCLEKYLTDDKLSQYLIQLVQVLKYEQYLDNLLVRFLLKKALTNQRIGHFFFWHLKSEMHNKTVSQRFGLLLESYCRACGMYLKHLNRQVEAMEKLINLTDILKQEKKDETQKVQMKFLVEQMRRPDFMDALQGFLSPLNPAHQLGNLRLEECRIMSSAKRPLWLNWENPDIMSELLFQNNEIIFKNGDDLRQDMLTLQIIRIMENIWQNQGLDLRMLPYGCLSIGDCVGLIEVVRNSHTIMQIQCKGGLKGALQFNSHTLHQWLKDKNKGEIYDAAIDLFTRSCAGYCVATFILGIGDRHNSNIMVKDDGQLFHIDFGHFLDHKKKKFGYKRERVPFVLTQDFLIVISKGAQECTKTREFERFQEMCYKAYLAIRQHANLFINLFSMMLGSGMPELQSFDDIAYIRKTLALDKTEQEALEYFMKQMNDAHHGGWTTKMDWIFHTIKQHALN

[22] = target: CAMK2G (Homo sapiens, UniProt Q13555)
[23] = target: LATS1 (Homo sapiens, UniProt O95835)
[24] = target: T6, MELK (Homo sapiens, UniProt Q14680)
T6 construct: T7 phage fusion (stated for most kinases of the panel only); made in house; host or cells: T7 phage in E. coli (BL21-derived) or HEK-293 cells

[25] = target: KIT (D816V) (Homo sapiens, UniProt P10721, D816V)
[26] = target: GRK1 (Homo sapiens, UniProt Q15835)
GRK1, sequence (Q15835 whole entry): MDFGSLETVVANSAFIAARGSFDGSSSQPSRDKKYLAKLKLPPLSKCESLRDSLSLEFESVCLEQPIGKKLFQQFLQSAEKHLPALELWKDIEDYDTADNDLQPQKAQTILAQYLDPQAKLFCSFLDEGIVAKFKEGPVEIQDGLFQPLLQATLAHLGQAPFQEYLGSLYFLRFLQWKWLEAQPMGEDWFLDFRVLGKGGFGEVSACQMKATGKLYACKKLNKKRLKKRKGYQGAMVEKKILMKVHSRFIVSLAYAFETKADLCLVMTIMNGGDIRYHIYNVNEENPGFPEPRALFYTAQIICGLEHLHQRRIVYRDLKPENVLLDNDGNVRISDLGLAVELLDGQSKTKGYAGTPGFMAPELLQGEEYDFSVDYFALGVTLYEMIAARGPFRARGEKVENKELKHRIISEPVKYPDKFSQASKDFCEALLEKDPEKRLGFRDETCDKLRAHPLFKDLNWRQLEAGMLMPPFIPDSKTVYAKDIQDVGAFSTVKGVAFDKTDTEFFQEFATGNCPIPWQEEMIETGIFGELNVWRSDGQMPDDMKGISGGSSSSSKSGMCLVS

[27] = target: PCTK1 (Homo sapiens, UniProt Q00536)
PCTK1, sequence (Q00536 whole entry): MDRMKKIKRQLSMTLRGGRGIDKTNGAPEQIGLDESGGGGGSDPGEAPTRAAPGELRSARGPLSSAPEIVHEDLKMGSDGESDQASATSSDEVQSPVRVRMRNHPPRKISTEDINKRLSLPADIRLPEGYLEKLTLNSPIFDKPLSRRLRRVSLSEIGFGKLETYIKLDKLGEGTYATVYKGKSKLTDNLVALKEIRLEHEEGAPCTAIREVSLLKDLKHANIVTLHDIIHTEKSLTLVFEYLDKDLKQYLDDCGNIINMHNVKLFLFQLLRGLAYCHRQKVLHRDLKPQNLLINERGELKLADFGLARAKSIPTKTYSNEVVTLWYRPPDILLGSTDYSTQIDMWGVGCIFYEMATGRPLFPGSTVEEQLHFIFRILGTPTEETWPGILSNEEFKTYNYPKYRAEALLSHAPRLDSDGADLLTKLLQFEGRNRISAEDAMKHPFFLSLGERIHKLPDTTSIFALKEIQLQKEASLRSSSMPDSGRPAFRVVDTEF

[28] = target: BRSK2 (Homo sapiens, UniProt Q8IWQ3)
[29] = target: T7, MYLK4 (Homo sapiens, UniProt Q86YV6)
T7 construct: T7 phage fusion (said for most assays); made in house

[30] = target: ABL1-phosphorylated (Homo sapiens, UniProt P00519)
[31] = target: TNK2 (Homo sapiens, UniProt Q07912)
[32] = target: DRAK1 (Homo sapiens, UniProt Q9UEE5)
DRAK1, sequence (Q9UEE5 whole entry): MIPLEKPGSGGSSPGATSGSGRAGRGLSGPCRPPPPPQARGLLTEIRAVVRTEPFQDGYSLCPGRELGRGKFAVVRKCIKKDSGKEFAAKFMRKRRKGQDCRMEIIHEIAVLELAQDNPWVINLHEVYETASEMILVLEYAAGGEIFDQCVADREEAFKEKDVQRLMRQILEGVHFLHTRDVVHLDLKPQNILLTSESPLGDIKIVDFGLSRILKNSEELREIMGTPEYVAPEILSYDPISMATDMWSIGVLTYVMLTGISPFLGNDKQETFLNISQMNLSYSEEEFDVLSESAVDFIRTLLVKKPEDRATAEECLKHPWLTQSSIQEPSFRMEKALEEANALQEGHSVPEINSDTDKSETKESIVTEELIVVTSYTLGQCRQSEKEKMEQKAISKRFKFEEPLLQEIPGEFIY

[33] = target: WEE2 (Homo sapiens, UniProt P0C1S8)
[34] = target: T8, NLK (Homo sapiens, UniProt Q9UBE8)
T8 construct: T7 phage fusion (said for most assays); made in house

[35] = target: RPS6KA4 (Kin.Dom.1-N-terminal) (Homo sapiens, UniProt O75676)
RPS6KA4 (Kin.Dom.1-N-terminal), sequence (O75676 33-301 limits assumed): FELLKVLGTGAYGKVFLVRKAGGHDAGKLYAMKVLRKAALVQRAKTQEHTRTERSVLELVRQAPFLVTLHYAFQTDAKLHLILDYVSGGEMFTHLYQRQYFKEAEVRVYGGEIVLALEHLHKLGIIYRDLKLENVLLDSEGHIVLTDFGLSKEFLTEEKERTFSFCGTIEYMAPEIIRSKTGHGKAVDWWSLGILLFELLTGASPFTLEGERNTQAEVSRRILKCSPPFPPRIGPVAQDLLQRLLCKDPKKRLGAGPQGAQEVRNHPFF

[36] = target: RET (V804M) (Homo sapiens, UniProt P07949, V804M)
[37] = target: RSK2 (Kin.Dom.2-C-terminal) (Homo sapiens, UniProt P51812)
RSK2 (Kin.Dom.2-C-terminal), sequence (P51812 422-679 limits assumed): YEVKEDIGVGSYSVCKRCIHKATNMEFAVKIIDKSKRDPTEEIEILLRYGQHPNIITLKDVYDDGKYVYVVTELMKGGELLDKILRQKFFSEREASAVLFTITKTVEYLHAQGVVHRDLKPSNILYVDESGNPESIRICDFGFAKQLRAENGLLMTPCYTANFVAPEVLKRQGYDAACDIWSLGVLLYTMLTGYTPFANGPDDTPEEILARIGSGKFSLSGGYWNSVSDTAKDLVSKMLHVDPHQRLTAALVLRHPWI

[38] = target: PHKG2 (Homo sapiens, UniProt P15735)
[39] = target: PRKCD (Homo sapiens, UniProt Q05655)

With `Cc1cc(Oc2cc(NC(=O)C3CC3)ncn2)ccc1NC(=O)Nc1ccc(Cl)c(C(F)(F)F)c1` [CBT-102] the remaining activity at 1 µM [1] was 77%, the remaining activity at 1 µM [2] was 90% and the remaining activity at 1 µM [3] was 90%. It also gave a remaining activity at 1 µM [4] of 100%, a remaining activity at 1 µM [5] of 94% and a remaining activity at 1 µM [6] of 29%. For the same molecule, the remaining activity at 1 µM [7] was 31%, the remaining activity at 1 µM [8] was 66% and the remaining activity at 1 µM [9] was 89%. It also gave a remaining activity at 1 µM [10] of 96%, a remaining activity at 1 µM [11] of 0.6% and a remaining activity at 1 µM [12] of 100%. The remaining activity at 1 µM [13] was 100%, the remaining activity at 1 µM [14] was 90% and the remaining activity at 1 µM [15] was 18%. The remaining activity at 1 µM [16] was 100%, the remaining activity at 1 µM [17] was 95% and the remaining activity at 1 µM [18] was 0.3%. It also gave a remaining activity at 1 µM [19] of 76%, a remaining activity at 1 µM [20] of 100% and a remaining activity at 1 µM [21] of 100%. For the same molecule, the remaining activity at 1 µM [22] was 100%, the remaining activity at 1 µM [23] was 80% and the remaining activity at 1 µM [24] was 84%. The remaining activity at 1 µM [25] was 18%, the remaining activity at 1 µM [26] was 100% and the remaining activity at 1 µM [27] was 88%. For the same molecule, the remaining activity at 1 µM [28] was 100%, the remaining activity at 1 µM [29] was 100% and the remaining activity at 1 µM [30] was 67%. It also gave a remaining activity at 1 µM [31] of 93%, a remaining activity at 1 µM [32] of 100% and a remaining activity at 1 µM [33] of 97%. It also gave a remaining activity at 1 µM [34] of 16%, a remaining activity at 1 µM [35] of 100% and a remaining activity at 1 µM [36] of 3.3%. The remaining activity at 1 µM [37] was 83%, the remaining activity at 1 µM [38] was 87% and the remaining activity at 1 µM [39] was 100%.
